Assay results published in ChEMBL document CHEMBL4837240 (J Med Chem, 2021).
The source made the active and inactive calls. The rule behind the calls is not given here.

What was measured:
[1] = target: Platelet-derived growth factor receptor beta (Homo sapiens, UniProt P09619); assay: Inhibition of PDGFRbeta (unknown origin)
[2] = target: Platelet-derived growth factor receptor alpha (Homo sapiens, UniProt P16234); assay: Inhibition of PDGFRalpha (unknown origin)
[3] = Toxicity in BALB/c mouse xenografted with MDA-MB-231 cells assessed as AST level in blood at 300 mg/kg, po; type: organism-based; conditions: in vivo
[4] = Antiproliferative activity against VEGF-C-induced human dermal lymphatic endothelial cells assessed as cell viability incubated for 48 hrs by CCK-8 assay; type: functional, tissue-based; conditions: HDLEC
MDA-MB-436 = assay: Anticancer activity against human MDA-MB-436 cells assessed as cell viability incubated for 48 hrs by MTT assay; conditions: MDA-MB-436, 48 h
[5] = Toxicity in BALB/c mouse xenografted with MDA-MB-231 cells assessed as change in heart at 300 mg/kg, po by hematoxylin and eosin staining based analysis; type: organism-based; conditions: in vivo
[6] = Toxicity in BALB/c mouse xenografted with MDA-MB-231 cells assessed as creatinine level in blood at 300 mg/kg, po; type: organism-based; conditions: in vivo
[7] = Toxicity in BALB/c mouse xenografted with MDA-MB-231 cells assessed as LDH level in blood at 300 mg/kg, po; type: organism-based; conditions: in vivo
HDLEC [8] = assay: Inhibition of cell migration in VEGF-C-induced human dermal lymphatic endothelial cells assessed as cell migration at 100 nM incubated for 24 hrs by inverted microscopy based by scratch wound healing assay; type: functional, tissue-based
[9] = Toxicity in BALB/c mouse xenografted with MDA-MB-231 cells assessed as change in liver at 300 mg/kg, po by hematoxylin and eosin staining based analysis; type: organism-based; conditions: in vivo
MDA-MB-231 [10] = assay: Antimetastatic activity against human MDA-MB-231 cells injected into vein of BALB/c mouse lung metastatic model assessed as less lung metastatic nodules at 25 mg/kg, po once a day measured on day 21; type: functional, organism-based; conditions: time 21.0 day
HDLEC [11] = assay: Anti-lymphangiogenic activity against human dermal lymphatic endothelial cells assessed as inhibition of VEGF-C-mediated tube formation at 100 nM incubated for 12 hrs by inverted microscopy; type: functional, tissue-based
[12] = Toxicity in BALB/c mouse xenografted with MDA-MB-231 cells assessed as ALT level in blood at 300 mg/kg, po; type: organism-based; conditions: in vivo
[13] = Toxicity in BALB/c mouse xenografted with MDA-MB-231 cells assessed as uric acid level in blood at 300 mg/kg, po; type: organism-based; conditions: in vivo
[14] = Toxicity in BALB/c mouse xenografted with MDA-MB-231 cells assessed as change in lung at 300 mg/kg, po by hematoxylin and eosin staining based analysis; type: organism-based; conditions: in vivo
[15] = Antiproliferative activity against VEGF-D-induced human dermal lymphatic endothelial cells assessed as cell viability incubated for 48 hrs by CCK-8 assay; type: functional, tissue-based; conditions: HDLEC
[16] = Toxicity in BALB/c mouse xenografted with MDA-MB-231 cells assessed as change in spleen at 300 mg/kg, po by hematoxylin and eosin staining based analysis; type: organism-based; conditions: in vivo
[17] = Toxicity in BALB/c mouse xenografted with MDA-MB-231 cells assessed as change in kidney at 300 mg/kg, po by hematoxylin and eosin staining based analysis; type: organism-based; conditions: in vivo
[18] = Toxicity in BALB/c mouse xenografted with MDA-MB-231 cells assessed as change in liver at 25 mg/kg, po by hematoxylin and eosin staining based analysis; type: organism-based; conditions: in vivo
[19] = Toxicity in BALB/c mouse xenografted with MDA-MB-231 cells assessed as effect on body weight at 50 mg/kg, po; type: organism-based; conditions: in vivo
MDA-MB-231 [20] = assay: Anticancer activity against human MDA-MB-231 cells assessed as cell viability incubated for 48 hrs by MTT assay; conditions: MDA-MB-231, 48 h
HDLEC [21] = assay: Antimigratory activity against VEGF-C-induced human dermal lymphatic endothelial cells assessed as cell migration at 100 nM incubated for 12 hrs by inverted microscopy based by transwell assay; type: functional, tissue-based
[22] = target: Mast/stem cell growth factor receptor Kit (Homo sapiens, UniProt P10721); assay: Inhibition of c-Kit (unknown origin)
Chain of Mast/stem cell growth factor receptor Kit (P10721 whole entry): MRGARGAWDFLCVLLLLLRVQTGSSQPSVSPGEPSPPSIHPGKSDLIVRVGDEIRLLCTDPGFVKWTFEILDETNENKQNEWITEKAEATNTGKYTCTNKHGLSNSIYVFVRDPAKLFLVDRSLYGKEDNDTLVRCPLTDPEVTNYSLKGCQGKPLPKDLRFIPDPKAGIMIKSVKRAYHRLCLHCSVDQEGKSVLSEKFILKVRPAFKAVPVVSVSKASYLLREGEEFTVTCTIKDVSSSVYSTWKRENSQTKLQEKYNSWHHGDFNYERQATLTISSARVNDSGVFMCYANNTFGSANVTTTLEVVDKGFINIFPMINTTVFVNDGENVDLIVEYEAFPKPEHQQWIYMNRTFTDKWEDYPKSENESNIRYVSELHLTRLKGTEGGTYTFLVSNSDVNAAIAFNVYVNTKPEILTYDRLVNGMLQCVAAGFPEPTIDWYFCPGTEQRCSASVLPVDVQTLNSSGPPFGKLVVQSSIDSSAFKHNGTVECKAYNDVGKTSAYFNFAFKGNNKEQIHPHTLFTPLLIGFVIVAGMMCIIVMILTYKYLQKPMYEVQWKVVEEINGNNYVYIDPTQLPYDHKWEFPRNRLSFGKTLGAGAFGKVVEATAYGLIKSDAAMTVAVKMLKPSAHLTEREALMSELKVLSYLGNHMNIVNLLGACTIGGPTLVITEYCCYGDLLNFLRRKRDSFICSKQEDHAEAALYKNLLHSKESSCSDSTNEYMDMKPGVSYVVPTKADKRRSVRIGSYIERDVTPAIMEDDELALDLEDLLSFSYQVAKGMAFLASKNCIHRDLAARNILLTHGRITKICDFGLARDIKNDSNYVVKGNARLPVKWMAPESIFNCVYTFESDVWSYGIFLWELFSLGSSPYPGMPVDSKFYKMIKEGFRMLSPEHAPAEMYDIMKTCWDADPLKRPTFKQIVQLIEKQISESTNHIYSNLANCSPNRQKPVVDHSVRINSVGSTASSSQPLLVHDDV

Chain of Platelet-derived growth factor receptor beta (P09619 whole entry): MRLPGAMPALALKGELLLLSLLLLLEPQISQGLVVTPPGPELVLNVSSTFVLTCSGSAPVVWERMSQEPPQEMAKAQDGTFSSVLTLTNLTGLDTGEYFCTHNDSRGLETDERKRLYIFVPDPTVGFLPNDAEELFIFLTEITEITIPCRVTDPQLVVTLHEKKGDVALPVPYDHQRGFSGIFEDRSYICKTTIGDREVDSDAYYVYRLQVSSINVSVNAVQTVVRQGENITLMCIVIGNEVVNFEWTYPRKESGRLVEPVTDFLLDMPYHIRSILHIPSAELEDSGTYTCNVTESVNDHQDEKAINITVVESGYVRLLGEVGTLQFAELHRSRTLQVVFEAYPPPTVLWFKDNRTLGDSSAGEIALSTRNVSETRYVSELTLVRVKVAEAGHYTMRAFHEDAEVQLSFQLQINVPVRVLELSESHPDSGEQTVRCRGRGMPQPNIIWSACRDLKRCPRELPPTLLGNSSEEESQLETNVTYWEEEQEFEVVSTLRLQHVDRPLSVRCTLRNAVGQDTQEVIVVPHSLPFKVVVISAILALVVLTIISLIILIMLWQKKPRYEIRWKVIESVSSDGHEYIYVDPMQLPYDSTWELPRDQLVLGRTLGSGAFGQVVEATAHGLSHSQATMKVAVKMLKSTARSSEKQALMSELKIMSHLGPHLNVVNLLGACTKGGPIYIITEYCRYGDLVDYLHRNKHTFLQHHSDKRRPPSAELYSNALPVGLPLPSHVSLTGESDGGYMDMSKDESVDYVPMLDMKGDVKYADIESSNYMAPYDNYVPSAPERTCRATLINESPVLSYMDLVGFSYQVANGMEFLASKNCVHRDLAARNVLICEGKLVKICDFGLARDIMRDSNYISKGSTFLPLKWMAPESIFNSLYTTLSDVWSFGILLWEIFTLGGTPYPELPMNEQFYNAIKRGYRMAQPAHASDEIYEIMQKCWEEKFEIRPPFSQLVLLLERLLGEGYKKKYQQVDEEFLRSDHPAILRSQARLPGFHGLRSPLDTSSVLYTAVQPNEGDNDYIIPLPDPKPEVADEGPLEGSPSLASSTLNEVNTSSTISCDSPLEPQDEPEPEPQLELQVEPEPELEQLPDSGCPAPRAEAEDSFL
Chain of Platelet-derived growth factor receptor alpha (P16234 whole entry): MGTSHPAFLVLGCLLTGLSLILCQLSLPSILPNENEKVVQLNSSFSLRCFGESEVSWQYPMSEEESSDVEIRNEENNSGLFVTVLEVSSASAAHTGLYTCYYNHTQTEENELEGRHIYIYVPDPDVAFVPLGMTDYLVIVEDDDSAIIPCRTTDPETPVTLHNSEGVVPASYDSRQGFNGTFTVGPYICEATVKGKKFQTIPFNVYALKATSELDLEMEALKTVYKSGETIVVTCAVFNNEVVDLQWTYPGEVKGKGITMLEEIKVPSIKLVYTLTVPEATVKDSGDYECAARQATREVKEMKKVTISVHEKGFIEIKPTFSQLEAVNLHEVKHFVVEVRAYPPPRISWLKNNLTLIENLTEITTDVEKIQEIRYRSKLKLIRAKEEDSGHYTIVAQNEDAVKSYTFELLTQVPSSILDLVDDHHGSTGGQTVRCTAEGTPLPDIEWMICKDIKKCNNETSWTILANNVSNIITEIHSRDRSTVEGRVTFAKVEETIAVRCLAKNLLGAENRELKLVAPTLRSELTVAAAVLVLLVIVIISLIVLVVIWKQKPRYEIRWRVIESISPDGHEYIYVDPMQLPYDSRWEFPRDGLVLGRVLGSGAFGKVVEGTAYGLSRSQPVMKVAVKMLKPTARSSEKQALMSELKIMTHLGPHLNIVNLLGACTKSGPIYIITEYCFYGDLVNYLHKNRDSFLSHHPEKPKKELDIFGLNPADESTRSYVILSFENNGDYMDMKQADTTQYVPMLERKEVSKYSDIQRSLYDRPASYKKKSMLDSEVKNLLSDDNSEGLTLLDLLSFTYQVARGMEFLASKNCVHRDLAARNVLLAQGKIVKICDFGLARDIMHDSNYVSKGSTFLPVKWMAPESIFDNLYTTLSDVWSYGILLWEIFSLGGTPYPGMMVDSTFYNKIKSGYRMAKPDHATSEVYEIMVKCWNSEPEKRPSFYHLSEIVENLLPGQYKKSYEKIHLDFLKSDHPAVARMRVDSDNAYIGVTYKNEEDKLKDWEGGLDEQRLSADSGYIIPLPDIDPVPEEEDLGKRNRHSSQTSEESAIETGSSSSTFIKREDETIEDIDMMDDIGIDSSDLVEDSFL

## COc1cc2nccc(Oc3ccc(NC(=O)NC4CC4)c(Cl)c3)c2cc1C(N)=O [LENVATINIB]
[1]
  IC50: 39 nM
[2]
  IC50: 51 nM

## CCn1c(N)c(C(=O)NC)c(=O)c2ccc(C#C[C@@](C)(O)COC)nc21
[3]
  Activity: Toxic
[4]
  IC50: 307 nM
MDA-MB-436
  IC50: > 50000 nM
[5]
  Activity: Toxic
[6]
  Activity: Toxic
[7]
  Activity: Toxic
HDLEC [8]
  Activity: Active
[9]
  Activity: Toxic
MDA-MB-231 [10]
  Activity: Active
HDLEC [11]
  Activity: Active
[12]
  Activity: Toxic
[13]
  Activity: Toxic
[14]
  Activity: Toxic
[15]
  IC50: 720 nM
[16]
  Activity: Toxic
[17]
  Activity: Toxic
[18]
  Activity: Toxic
[19]
  Activity: Toxic
MDA-MB-231 [20]
  IC50: > 50000 nM
HDLEC [21]
  Activity: Active

## CNC(=O)c1cc(COc2nnc(Nc3ccc(Cl)cc3)c3ccoc23)ccn1 [TELATINIB]
[1]
  IC50: 15 nM
[22]
  IC50: 1 nM
